IC50 data for 32 compounds are collected here from patent publication US7495104B2, “Quinoline or quinazoline derivatives inhibiting auto-phosphorylation of fibroblast growth factor receptors” (Kirin Beer Kabushiki Kaisha, priority 2001, dated 2009).

Each structure is given as a SMILES string. pIC50: −log10 of the molar value. Structures can show the parent of a compound that is named as a salt. Bounds are passed on as bounds.

Bek, sequence (P21802 431-767 limits assumed): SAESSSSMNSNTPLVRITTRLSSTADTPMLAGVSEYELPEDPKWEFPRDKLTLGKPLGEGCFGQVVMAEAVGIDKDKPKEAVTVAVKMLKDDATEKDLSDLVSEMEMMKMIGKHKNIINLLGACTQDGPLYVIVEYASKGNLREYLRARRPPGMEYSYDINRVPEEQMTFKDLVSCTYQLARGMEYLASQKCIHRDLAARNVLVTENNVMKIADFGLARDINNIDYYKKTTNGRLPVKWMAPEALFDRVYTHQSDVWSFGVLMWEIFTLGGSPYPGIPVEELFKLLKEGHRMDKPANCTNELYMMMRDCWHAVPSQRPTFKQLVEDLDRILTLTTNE

The target in this test is Bek (Homo sapiens, UniProt P21802). Kind of test: Inhibitory activity against Bek-autophosphorylation using ELISA method in OCUM-2MD3 cells. Type of test: cell-based. The following applies: 1 hr with compound, read-out: IC50 (concentration necessary for inhibiting 50% of Bek-phosphorylation). In outline:
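OCUM-2MD3 human scirrhous gastric cancer cells in 0.1% FCS were exposed to compound for 1 hr at 37° C, then lysed. Phospho-tyrosine proteins were captured with anti-phosphotyrosine antibody, probed with anti-Bek antibody and peroxidase read-out (A450). Positive control (1000 nM) set 0%, untreated 100%; IC50 from multi-level dilutions.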
As for `CCN(CCO)CCCOc1cc2nccc(Oc3ccc(NC(=O)NCCC(C)(C)C)cc3)c2cc1OC` [Compound 343, 1-(3,3-Dimethyl-butyl)-3-[4-(7-{3-[ethyl-(2-hydroxy-ethyl)-amino]-propoxy}-6-methoxy-quinolin-4-yloxy)-phenyl]-urea], the pIC50 was > 8.00.

As to `COc1cc2nccc(Oc3ccc(NC(=O)NCCC(C)(C)C)cc3)c2cc1OCCCN1CCC(O)CC1` [Compound 322, 1-(3,3-Dimethyl-butyl)-3-(4-{6-[3-(4-hydroxy-piperidin-1-yl)-propoxy]-7-methoxy-quinolin-4-yloxy}-phenyl)-urea], the pIC50 is 6.61.

In the case of `COc1cc2c(Oc3ccc(Nc4ccc(C(C)(C)C)cc4)c(Cl)c3)ccnc2cc1OCCCN1CCC(CO)CC1` [Compound 277, [1-(3-{4-[4-(4-Tert-butyl-phenylamino)-3-chloro-phenoxy]-6-methoxy-quinolin-7-yloxy}-propyl)-piperidin-4-yl]-methanol], the pIC50 was 6.21.

On to `COc1cc2c(Oc3ccc(NC(=O)NCCC(C)(C)C)cc3F)ccnc2cc1OCCCN1CCC(O)CC1` [Compound 286, 1-(3,3-Dimethyl-butyl)-3-(3-fluoro-4-{7-[3-(4-hydroxy-piperidin-1-yl)-propoxy]-6-methoxy-quinolin-4-yloxy}-phenyl)-urea], for which the pIC50 is 7.76.

Regarding `COc1cc2c(Oc3ccc(NC(=O)NCCC(C)(C)C)cc3)ccnc2cc1OCCCN1CC(C)CC(C)C1` (centres unmarked) [Compound 245, 1-(3,3-Dimethyl-butyl)-3-(4-{7-[3-(3,5-dimethyl-piperidin-1-yl)-propoxy]-6-methoxy-quinolin-4-yloxy}-phenyl)-urea], the pIC50 was 7.78.

`COc1cc2nccc(Oc3ccc(NC(=O)NCCC(C)(C)C)c(C)c3)c2cc1OC` [Compound 136, 1-[4-(6,7-Dimethoxy-quinolin-4-yloxy)-2-methyl-phenyl]-3-(3,3-dimethyl-butyl)-urea]: the pIC50 is 7.25.

For the compound `COc1cc2c(Oc3ccc(NC(=O)NCCC(C)(C)C)cc3)ccnc2cc1OCCCCN1CCCCC1` [Compound 157, 1-(3,3-Dimethyl-butyl)-3-{4-[6-methoxy-7-(4-piperidin-1-yl-butoxy)-quinolin-4-yloxy]-phenyl}-urea hydrochloride], the pIC50 was 7.55.

As for `COc1cc2c(Oc3ccc(Nc4ccc(C(C)(C)C)cc4)cc3)ccnc2cc1OCCCN(CCO)CCO` [Compound 51, 2-[(3-{4-[4-(4-Tert-butylphenylamino)phenoxy]-6-methoxy-quinolin-7-yloxy}propyl)-(2-hydroxyethyl)amino]ethanol], the pIC50 was 7.51.

On to `COc1cc2c(Oc3ccc(NC(=O)NCCC(C)(C)C)cc3)ccnc2cc1OCCCN1CCC(CO)CC1` [Compound 265, 1-(3,3-Dimethyl-butyl)-3-(4-{7-[3-(4-hydroxymethyl-piperidin-1-yl)-propoxy]-6-methoxy-quinolin-4-yloxy}-phenyl)-urea], for which the pIC50 was > 8.00.

With `COc1cc2c(Oc3ccc(Nc4ccc(C(C)(C)C)cc4)c(F)c3)ccnc2cc1OCCCN1CCC(O)CC1` [Compound 289, 1-(3-{4-[4-(4-Tert-butyl-phenylamino)-3-fluoro-phenoxy]-6-methoxy-quinolin-7-yloxy}-propyl)-piperidin-4-ol], the pIC50 is 6.61.

`COc1cc2nccc(Oc3ccc(NC(=O)NC4CCCC(C)(C)C4)c(F)c3)c2cc1OC` (centres unmarked) [Compound 109, 1-[4-(6,7-Dimethoxy-quinolin-4-yloxy)-2-fluoro-phenyl]-3-(3,3-dimethyl-cyclohexyl)-urea]: the pIC50 was > 8.00.

With `COc1cc2nccc(Oc3ccc(N(C)c4ccc(C(C)(C)C)cc4)cc3)c2cc1OC` [Compound 20, (4-Tert-butylphenyl)-[4-(6.7-dimethoxyquinolin-4-yloxy)phenyl]-methylamine], the pIC50 is 6.49.

In the case of `COc1cc2c(Oc3ccc(Nc4ccc(C(C)(C)C)cc4)cc3Cl)ccnc2cc1OCCN1CCC(O)CC1` [Compound 307, 1-(2-{4-[4-(4-Tert-butyl-phenylamino)-2-chloro-phenoxy]-6-methoxy-quinolin-7-yloxy}-ethyl)-piperidin-4-ol], the pIC50 is 6.42.

On to `COc1cc2c(Oc3ccc(Nc4ccc(C(C)(C)C)cc4)cc3)ccnc2cc1OCCN1CCCN(C)CC1` [Compound 45, (4-Tert-butylphenyl)-(4-{6-methoxy-7-[2-(4-methyl-[1,4]diazepin-1-yl)ethoxy]quinolin-4-yloxy}phenyl)amine], for which the pIC50 was 6.62.

On to `COc1cc2c(Oc3ccc(NC(=O)NCCC(C)(C)C)cc3)ccnc2cc1OCC(=O)O` [Compound 221, (4-{4-[3-(3,3-Dimethyl-butyl)-ureido]-phenoxy}-6-methoxy-quinolin-7-yloxy)-acetic acid], for which the pIC50 is 6.12.

As for `COc1cc2c(Oc3ccc(NC(=O)NCCC(C)(C)C)cc3)ccnc2cc1OCC(O)CN1CCC(N2CCCC2)CC1` (centres unmarked) [Compound 262, 1-(3,3-Dimethyl-butyl)-3-(4-{7-[2-hydroxy-3-(4-pyrrolidin-1-yl-piperidin-1-yl)-propoxy]-6-methoxy-quinolin-4-yloxy}-phenyl)-urea], the pIC50 was > 8.00.

Turning to `COc1cc2c(Oc3ccc(NC(=O)NCCC(C)(C)C)c(Cl)c3)ccnc2cc1OCCCCCl` [Compound 162, 1-{2-Chloro-4-[7-(4-chloro-butoxy)-6-methoxy-quinolin-4-yloxy]-phenyl}-3-(3,3-dimethyl-butyl)-urea], the pIC50 is 6.60.

Regarding `COc1cc2c(Oc3ccc(NC(=O)NCCC(C)(C)C)c(Cl)c3)ccnc2cc1OCCCN(CCO)CCO` [Compound 184, 1-[4-(7-{3-[Bis-(2-hydroxy-ethyl)-amino]-propoxy}-6-methoxy-quinolin-4-yloxy)-2-chloro-phenyl]-3-(3,3-dimethyl-butyl)-urea], the pIC50 was 8.04.

As to `COc1cc2c(Oc3ccc(Nc4ccc(C(C)(C)C)cc4)cc3Cl)ccnc2cc1OCCN(CCO)CCO` [Compound 346, 2-[(2-{4-[4-(4-Tert-butyl-phenylamino)-2-chloro-phenoxy]-6-methoxy-quinolin-7-yloxy}-ethyl)-(2-hydroxy-ethyl)-amino]-ethanol], the pIC50 is 6.53.

On to `COc1cc2c(Oc3ccc(Nc4ccc(C(C)(C)C)cc4)cc3F)ccnc2cc1OCCN1CCC(O)CC1` [Compound 284, 1-(2-{4-[4-(4-Tert-butyl-phenylamino)-2-fluoro-phenoxy]-6-methoxy-quinolin-7-yloxy}-ethyl)-piperidin-4-ol], for which the pIC50 is 6.61.

As for `COc1cc2nccc(Oc3ccc(Nc4ccc(C(C)(C)C)cc4)cc3OC)c2cc1OC` [Compound 15, (4-Tert-butylphenyl)-[4-(6,7-dimethoxyquinolin-4-yloxy)-3-methoxyphenyl]amine], the pIC50 is 6.37.

Consider `COc1cc2c(Oc3ccc(NC(=O)NCCC(C)(C)C)c(Cl)c3)ccnc2cc1OCCCN1CCCCCC1` [Compound 181, 1-{4-[7-(3-Azepan-1-yl-propoxy)-6-methoxy-quinolin-4-yloxy]-2-chloro-phenyl}-3-(3,3-dimethyl-butyl)-urea], for which the pIC50 is 7.58.

For the compound `COc1cc2c(Oc3ccc(Nc4ccc(C(C)(C)C)cc4)c(F)c3)ccnc2cc1OCCN1CCOCC1` [Compound 79, (4-Tert-butylphenyl)-{2-fluoro-4-[6-methoxy-7-(2-morpholin-4-ylethoxy)quinolin-4-yloxy]phenyl}amine], the pIC50 is 6.80.

`COc1cc2nccc(Oc3ccc(NC(=O)NCCC(C)(C)C)cc3)c2cc1OCC(O)CN1CCOCC1` (centres unmarked) [Compound 225, 1-(3,3-Dimethyl-butyl)-3-{4-[6-(2-hydroxy-3-morpholin-4-yl-propoxy)-7-methoxy-quinolin-4-yloxy]-phenyl}-urea]: the pIC50 is 7.70.

Regarding `COc1ccc(Nc2ccc(Oc3ccnc4cc(OC)c(OC)cc34)cc2)cc1OC` [Compound 43, (3,4-Dimethoxyphenyl)-[4-(6,7-dimethoxyquinolin-4-yloxy)-phenyl]amine], the pIC50 is 5.48.

With `COc1cc2c(Oc3ccc(Nc4ccc(C(C)(C)C)cc4)c(F)c3)ccnc2cc1OCCN1CCC(CCO)CC1` [Compound 305, 2-[1-(2-{4-[4-(4-Tert-butyl-phenylamino)-3-fluoro-phenoxy]-6-methoxy-quinolin-7-yloxy}-ethyl)-piperidin-4-yl]-ethanol], the pIC50 was 6.44.

`COc1cc2nccc(Oc3ccc(NC(=O)NCCC(C)(C)C)cc3C)c2cc1OC` [Compound 137, 1-[4-(6,7-Dimethoxy-quinolin-4-yloxy)-3-methyl-phenyl]-3-(3,3-dimethyl-butyl)-urea]: the pIC50 is 7.18.

In the case of `COc1cc2c(Oc3ccc(NC(=O)NCCC(C)(C)C)cc3Cl)ccnc2cc1OCCCN1CCC(CCO)CC1` [Compound 316, 1-[3-Chloro-4-(7-{3-[4-(2-hydroxy-ethyl)-piperidin-1-yl]-propoxy}-6-methoxy-quinolin-4-yloxy)-phenyl]-3-(3,3-dimethyl-butyl)-urea], the pIC50 is 7.07.

Take `COc1cc2c(Oc3ccc(Nc4ccc(C(C)(C)C)cc4)cc3)ccnc2cc1OCCCCN1CCOCC1` [Compound 25, (4-Tert-butylphenyl)-{4-[6-methoxy-7-(4-morpholin-4-ylbutoxy)-quinolin-4-yloxy]phenyl}amine]: the pIC50 was 6.70.

For `COc1cc2c(Oc3ccc(NC(=O)NCCC(C)(C)C)c(Cl)c3)ccnc2cc1OCCCN1CCN(C)CC1` [Compound 187, 1-(2-Chloro-4-{6-methoxy-7-[3-(4-methyl-piperazin-1-yl)-propoxy]-quinolin-4-yloxy}-phenyl)-3-(3,3-dimethyl-butyl)-urea], the pIC50 was 7.65.

On to `COc1cc2c(Oc3ccc(NC(=O)NCCC(C)(C)C)cc3)ccnc2cc1OCCCN1CCC(O)CC1` [Compound 96, 1-(3,3-Dimethyl-butyl)-3-(4-{7-[3-(4-hydroxy-piperidin-1-yl)-propoxy]-6-methoxy-quinolin-4-yloxy}-phenyl)-urea], for which the pIC50 is > 8.00.

In the case of `COc1cc2c(Oc3ccc(Nc4ccc(C(C)(C)C)cc4)cc3)ccnc2cc1OCCN1C[C@@H](C)O[C@@H](C)C1` [Compound 68, (4-Tert-butylphenyl)-(4-{7-[2-(2,6-dimethylmorpholin-4-yl)ethoxy]-6-methoxyquinolin-4-yloxy}phenyl)amine], the pIC50 is 6.61.
